From patent US20240343760A1, “PEPTIDES FOR CELL-TYPE SPECIFIC TARGETING OF THE RETINA” (Oregon State University, priority 2021, published 2024)
“Also recorded” adds a separate entry of the source. Where two headings read alike, the source gives them in different places. Ends that are not written are not given here. TAMRA = 5-(and -6)-carboxytetramethylrhodamine fluorophore, conjugated to the side chain of the C-terminal Cys

How the values were obtained:
[1] = test system: hARPE19 cells; assay: Cell ELISA of phage-displayed peptides on hARPE19 cells; type: cell-based; settings: vs empty bacteriophage control
Description: (§1) ARPE19 and 661w cells were seeded a day before the experiment on 96 well plates (10^4 cells/well). On day of experiment, cells were first fixed in 4% paraformaldehyde solution at room temperature for 15 minutes. This was followed by three washes with PBS and then the cells were blocked for 30 minutes at room temperature with 1% BSA in PBS. […] The wells were then washed with 0.1% TBST and individual phage clones were incubated for one hour at room temperature in blocking buffer with gentle rocking. After phage incubation, wells were washed three times with 0.1% TBST to reduce non-specific binding and eliminate weakly bound phages. Biotin-conjugated, mouse anti-M13 phage coat protein primary antibody was added (Thermo Fisher cat. #MA1-34468) at 1:5000 dilution in 0.1% TBST and incubated for 1 hour at room temperature with gentle rocking. The wells were washed three more times with 0.1% TBST and subsequently incubated with poly-HRP streptavidin secondary antibody (Thermo Fisher cat. #N200) at 1:10000 dilution in 0.1% TBST for 1 hour at room temperature. Wells were then washed three times with 0.1% TBST and 3,3′,5,5′-Tetramethylbenzidine (Thermo Fisher) was added to the wells and incubated at room temperature for 5-10 minutes and the reaction was stopped with 0.2 M Sulfuric Acid and absorbance was read at 450 nm using TECAN Infinite200 Pro spectrophotometer (Tecan Group Ltd., Switzerland).
(§2) After identifying 30 novel peptide sequences, top-performing candidates were identified that could target LNPs to the neural retina. Since bacteriophages were eluted from the entire neural retina, the candidates were pre-screened for their ability to bind to the cell of interest, the PRs. Single bacteriophage-peptides were amplified in E. coli, and a cell-based enzyme-linked immunosorbent assay (ELISA) was developed against the 661w mouse cone PR cell line and the hARPE19 cell line as a control. As expected, for most of the bacteriophage-peptide candidates, binding affinities were weaker when tested against RPE cells compared to 661w cone cells. […] However, the binding affinity, as measured by OD450, was close to 2-fold higher when binding to 661w cone cells compared to hARPE19 cells.

[2] = test system: 661w cone cells; assay: Cell ELISA of phage-displayed peptides on 661w cone cells; type: cell-based, mouse; settings: for binding affinity (OD450) 661w cone cells compared to hARPE19 cells: ratio 661w / hARPE19; for binding to 661w cone cells (cell ELISA, OD450): vs empty bacteriophage control
Description: as §1, §2

[3] = test system: PR and RPE/choroid layers; assay: In vivo validation with TAMRA-labelled peptides, intravitreal or subretinal injection
Description: (§3) For subretinal injections, mice were topically administered 0.5% proparacaine, 1% tropicamide, and 2.5% phenylephrine and anesthetized with ketamine (100 mg/kg)/xylazine (10 mg/kg). To initiate the injection, 2.5% hypromellose was used to cover the eye and a 30-gauge needle was used to make an incision in the limbus. A glass coverslip was then placed over the eye to allow for visualization of the retina. Going through the scleral incision in the limbus, using a Hamilton syringe with a 33-gauge blunt needle, 1 μL PBS, peptide, or LNP-Cre were delivered to the subretinal space. A 2% fluorescein solution was added to the PBS and LNPs so retinal detachment could be confirmed. For most injections, scleral incisions in the limbus were created nasally and PBS or LNPs were delivered temporally. Intravitreal injections were performed as previously described elsewhere (25). […] For intravitreal injections 1.1 μg (1.5 μL, 741 ng/μL) was injected.
(§4) At specified time points, mouse eyes were enucleated and fixed using 4% paraformaldehyde in PBS overnight at 4° C. Eyes were cryopreserved in 30% sucrose solution for 2 hours prior to embedding in OCT media followed by cryo-sectioning and confocal imaging. Retinal cryo-sections were 12 μm thick and DAPI stained prior to confocal imaging done using TCS SP8 X (Leica Microsystems, Buffalo Grove, IL). Z-stacks (spanned 10 μm with 1 μm interval) were collected using a 40× objective, and maximum intensity projections were used for further analysis.
(§5) All confocal imaging was performed using TCS SP8 X (Leica Microsystems, Buffalo Grove, IL). Z-stacks (spanned 10 μm with 1 μm interval) were collected using a 20× or 40× objective, and maximum intensity projections were used for further analysis.
(§6) For TAMRA quantification from peptide injections, region of interest (ROI) were created for RPE/choroid and PR cell layer for mean fluorescent intensity values. Fold change measurements were compared to TAMRA-only controls. An ordinary one-way ANOVA, with Tukey's correction for multiple comparisons test was used for comparisons between groups (Prism 8 software, GraphPad Software, La Jolla, CA). Data are presented as mean±SEM. A p-value <0.05 was considered as statistically significant.

[4] = test system: PR and RPE/choroid layers; settings: mouse, in vivo
Description: as §3, §4, §5, §6

[5] = test system: 661w cone cells; assay: Cell internalization of TAMRA-labeled peptides, 661w cone cells; type: cell-based, mouse; settings: 661w cells, TAMRA-conjugated peptide, 30 minutes
Description: Approximately 50,000 cells were seeded per well of 8-well μ-Slide (Ibidi, Fitchburg, WI) and incubated with 10 nM and 50 nM TAMRA-labeled peptides for 30 minutes at 37° C. followed by washing with PBS, fixation in 4% Paraformaldehyde for 10 mins at room temperature. Cells were then washed three times, DAPI stained and cover slipped for confocal microscopy imaging. Fluorescence confocal images of cell internalization studies were captured with the same exposure settings and were analyzed for fluorescence intensity using ImageJ (version 1.45; National Institutes of Health, Bethesda, MD). First, the hARPE or 661w cells were outlined and ImageJ calculated the pixel intensity of the different cell treatments with different peptides. At least three images were analyzed for each peptide tested.
TAMRA-conjugated peptides were added to hARPE19 and 661w cells at a 10 nM and 50 nM concentration to evaluate their internalization (FIGS. 2E to 2H and 8A to 8B). After 30 minutes of incubation at 37° C., cells were fixed and DAPI stained for confocal imaging.

| Substance | binding to hARPE19 (RPE) cells (cell ELISA, OD450) [1] | binding affinity (OD450) 661w cone cells compared to hARPE19 cells [2] [fold] | binding to 661w cone cells (cell ELISA, OD450) [2] | also measured |
| --- | --- | --- | --- | --- |
| ATGPRSV [Peptide 57] | highest affinity | ~2 | high binding | binding to hARPE19 (RPE) cells (cell ELISA, OD450) ([1]; listed as MH57): significantly higher binding |
| DGPPRKP [Peptide 3] | highest affinity | – | – | – |
| DGPPRKPGGGSC (DGPPRKPGGGSC(TAMRA); not fully specified) [MH3] | significantly higher binding | – | reduced binding affinity; also recorded: low-binder | retinal localization of TAMRA-labelled peptide (confocal) [3]: poor accumulation in RPE and PRs |
| HLSSLTP [Peptide 54] | highest affinity | – | highest affinity | binding to hARPE19 (RPE) cells (cell ELISA, OD450) ([1]; listed as MH54): significantly higher binding |
| LAFHRMP [Peptide 52] | highest affinity | ~2 | highest affinity | binding to hARPE19 (RPE) cells (cell ELISA, OD450) ([1]; listed as MH52): significantly higher binding; binding to 661w cone cells (cell ELISA, OD450) ([2]; listed as MH52): high binding |
| MPVAVYR [Peptide 50] | highest affinity | – | highest affinity | – |
| MPVAVYRGGGSC (MPVAVYRGGGSC(TAMRA)) [MH50, peptide 50 with added linker; TAMRA-labelled at carboxy-terminal Cys in cell and in vivo tests] | significantly higher binding | ~2 | high binding; also recorded: high-binders; also recorded: top 2 performing | retinal localization of TAMRA-labelled peptide (confocal) [4]: localized to PRs including the outer nuclear layer and inner/outer segments as well as RPE; cellular uptake compared to the negative control MH3 [5]: 4.1 fold |
| SNLAAFP [Peptide 43] | – | – | highest affinity | – |
| SNLAAFPGGGSC (SNLAAFPGGGSC(TAMRA)) [MH43, peptide 43 with added linker; TAMRA-labelled at carboxy-terminal Cys in cell and in vivo tests] | – | – | high-binders | – |
| SPALHFL [Peptide 42] | – | – | highest affinity | – |
| SPALHFLGGGSC (SPALHFLGGGSC(TAMRA)) [MH42, peptide 42 with added linker; TAMRA-labelled at carboxy-terminal Cys in cell and in vivo tests] | significantly higher binding | ~2 | high binding; also recorded: high-binders; also recorded: top 2 performing | clearance of labelled peptide from retina [4]: ≤ 24 h; retinal localization of TAMRA-labelled peptide (confocal) [4]: localized to PRs including the outer nuclear layer and inner/outer segments as well as RPE; timepoint of maximum level of labelled peptide in retina [4]: 6 h; cellular uptake compared to the negative control MH3 [5]: 1.7 fold |
